Assay results reported in patent US20250170248A1, “SMARCA DEGRADERS AND USES THEREOF” (Kymera Therapeutics, Inc., priority 2021, published 2025).

Assays:
Assay type in all cases: cell-based
[1] = biological target: T1, SMARCA4 (Homo sapiens, UniProt P51532); test: SMARCA4 Western blot degradation in MV4-11 cells; settings: for SMARCA4 MSD MV411 degradation 24 h: average Dmax % / DC50: MV4-11 cells; for DC50 / Dmax: 24 h; for DC50: read-out: SMARCA4 MSD MV411 degradation 24 h: Mean external-Abs DC50; for Dmax: MV4-11, MV4-11 cells, read-out: SMARCA4 MSD MV411 degradation 24 h: average Dmax %
T1 construct: SMARCA2/SMARCA4 protein degradation selectivity in MV4-11 cells; endogenous in cells; host or cells: MV4-11
Procedure, shortened: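 Protein levels quantified by LI-COR Western blot (beta-actin loading control) in RIPA lysates of MV4-11 cells after 24 h compound exposure. Degradation reported as DC50, Dmax % at 24 h and SMARCA2 vs SMARCA4 selectivity, each binned into letter codes.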

[2] = biological target: T2, SMARCA2 (Homo sapiens, UniProt P51531); test: MSD SMARCA2 degradation in A549 cell line; settings: for SMARCA2 MSD A549 degradation 24 h: Average Dmax % / DC50: A549 cells; for DC50 / Dmax: 24 h; for DC50: read-out: SMARCA2 MSD A549 degradation 24 h: Average external-Abs DC50; for Dmax: A549, A549 cells
Procedure, shortened: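 SMARCA2 protein remaining after 24 h exposure of A549 cells (top concentration 1000 nM, 3-fold dilutions) was measured by MSD electrochemiluminescence immunoassay of cell lysates. Results are given as binned DC50 and maximal degradation (Dmax) codes.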

[3] = biological target: T2, SMARCA2; test: SMARCA2 Western blot degradation in MV4-11 cells; parameters: SMARCA2/SMARCA4 protein degradation selectivity in MV4-11 cells; endogenous in cells; host or cells: MV4-11; settings: for SMARCA2 MSD MV411 degradation 24 h: average Dmax % / DC50 / Selectivity in MV411: MV4-11 cells; for SMARCA2 MSD MV411 degradation 24 h: average Dmax % / DC50 / Dmax: 24 h; for DC50: read-out: SMARCA2 MSD MV411 degradation 24 h: Mean external-Abs DC50; for Selectivity in MV411: SMARCA2/4 selectivity; for Dmax: MV4-11, MV4-11 cells, read-out: SMARCA2 MSD MV411 degradation 24 h: average Dmax %

T1 sequence (P51532 whole entry): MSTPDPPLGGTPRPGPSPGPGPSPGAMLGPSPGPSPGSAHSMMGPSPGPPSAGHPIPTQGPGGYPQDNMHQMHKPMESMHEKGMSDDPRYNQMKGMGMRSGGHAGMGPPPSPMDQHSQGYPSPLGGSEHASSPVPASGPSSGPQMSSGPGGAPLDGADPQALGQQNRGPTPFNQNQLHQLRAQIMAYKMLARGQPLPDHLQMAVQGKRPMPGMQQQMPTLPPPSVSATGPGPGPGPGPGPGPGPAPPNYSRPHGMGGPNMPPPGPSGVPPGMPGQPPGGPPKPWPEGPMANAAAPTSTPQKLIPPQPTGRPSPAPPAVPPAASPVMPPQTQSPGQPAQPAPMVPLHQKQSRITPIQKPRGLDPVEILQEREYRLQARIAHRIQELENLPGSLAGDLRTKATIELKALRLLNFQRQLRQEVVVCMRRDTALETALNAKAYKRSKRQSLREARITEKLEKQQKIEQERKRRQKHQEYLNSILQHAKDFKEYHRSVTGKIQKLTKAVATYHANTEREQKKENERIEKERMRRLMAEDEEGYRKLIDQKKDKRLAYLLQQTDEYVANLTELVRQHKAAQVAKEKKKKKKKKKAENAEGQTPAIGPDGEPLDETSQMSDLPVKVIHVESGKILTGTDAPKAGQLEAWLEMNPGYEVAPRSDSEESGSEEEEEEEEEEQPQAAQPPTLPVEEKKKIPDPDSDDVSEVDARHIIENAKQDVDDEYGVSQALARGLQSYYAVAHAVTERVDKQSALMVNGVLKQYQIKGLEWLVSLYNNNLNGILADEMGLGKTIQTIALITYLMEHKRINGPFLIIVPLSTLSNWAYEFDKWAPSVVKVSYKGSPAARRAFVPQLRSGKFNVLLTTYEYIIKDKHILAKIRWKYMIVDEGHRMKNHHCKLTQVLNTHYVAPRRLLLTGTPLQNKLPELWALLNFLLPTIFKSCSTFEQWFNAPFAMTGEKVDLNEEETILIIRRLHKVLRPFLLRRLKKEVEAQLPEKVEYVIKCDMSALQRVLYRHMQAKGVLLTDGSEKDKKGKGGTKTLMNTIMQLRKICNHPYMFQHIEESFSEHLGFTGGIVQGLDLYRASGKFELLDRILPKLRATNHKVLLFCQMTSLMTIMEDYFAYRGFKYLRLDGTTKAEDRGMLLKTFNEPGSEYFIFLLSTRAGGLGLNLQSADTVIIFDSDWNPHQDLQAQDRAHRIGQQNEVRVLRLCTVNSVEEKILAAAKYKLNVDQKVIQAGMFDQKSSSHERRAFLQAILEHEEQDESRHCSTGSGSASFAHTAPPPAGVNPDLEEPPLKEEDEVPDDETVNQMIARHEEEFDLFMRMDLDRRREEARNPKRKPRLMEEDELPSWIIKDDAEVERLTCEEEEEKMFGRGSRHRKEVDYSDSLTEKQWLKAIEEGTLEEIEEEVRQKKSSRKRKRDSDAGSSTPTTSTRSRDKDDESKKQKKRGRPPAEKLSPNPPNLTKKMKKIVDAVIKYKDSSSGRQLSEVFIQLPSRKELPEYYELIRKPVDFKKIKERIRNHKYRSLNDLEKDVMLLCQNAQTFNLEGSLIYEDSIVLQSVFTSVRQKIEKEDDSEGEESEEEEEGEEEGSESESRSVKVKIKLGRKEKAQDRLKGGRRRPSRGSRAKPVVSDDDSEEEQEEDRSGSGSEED
T2 sequence (P51531 whole entry): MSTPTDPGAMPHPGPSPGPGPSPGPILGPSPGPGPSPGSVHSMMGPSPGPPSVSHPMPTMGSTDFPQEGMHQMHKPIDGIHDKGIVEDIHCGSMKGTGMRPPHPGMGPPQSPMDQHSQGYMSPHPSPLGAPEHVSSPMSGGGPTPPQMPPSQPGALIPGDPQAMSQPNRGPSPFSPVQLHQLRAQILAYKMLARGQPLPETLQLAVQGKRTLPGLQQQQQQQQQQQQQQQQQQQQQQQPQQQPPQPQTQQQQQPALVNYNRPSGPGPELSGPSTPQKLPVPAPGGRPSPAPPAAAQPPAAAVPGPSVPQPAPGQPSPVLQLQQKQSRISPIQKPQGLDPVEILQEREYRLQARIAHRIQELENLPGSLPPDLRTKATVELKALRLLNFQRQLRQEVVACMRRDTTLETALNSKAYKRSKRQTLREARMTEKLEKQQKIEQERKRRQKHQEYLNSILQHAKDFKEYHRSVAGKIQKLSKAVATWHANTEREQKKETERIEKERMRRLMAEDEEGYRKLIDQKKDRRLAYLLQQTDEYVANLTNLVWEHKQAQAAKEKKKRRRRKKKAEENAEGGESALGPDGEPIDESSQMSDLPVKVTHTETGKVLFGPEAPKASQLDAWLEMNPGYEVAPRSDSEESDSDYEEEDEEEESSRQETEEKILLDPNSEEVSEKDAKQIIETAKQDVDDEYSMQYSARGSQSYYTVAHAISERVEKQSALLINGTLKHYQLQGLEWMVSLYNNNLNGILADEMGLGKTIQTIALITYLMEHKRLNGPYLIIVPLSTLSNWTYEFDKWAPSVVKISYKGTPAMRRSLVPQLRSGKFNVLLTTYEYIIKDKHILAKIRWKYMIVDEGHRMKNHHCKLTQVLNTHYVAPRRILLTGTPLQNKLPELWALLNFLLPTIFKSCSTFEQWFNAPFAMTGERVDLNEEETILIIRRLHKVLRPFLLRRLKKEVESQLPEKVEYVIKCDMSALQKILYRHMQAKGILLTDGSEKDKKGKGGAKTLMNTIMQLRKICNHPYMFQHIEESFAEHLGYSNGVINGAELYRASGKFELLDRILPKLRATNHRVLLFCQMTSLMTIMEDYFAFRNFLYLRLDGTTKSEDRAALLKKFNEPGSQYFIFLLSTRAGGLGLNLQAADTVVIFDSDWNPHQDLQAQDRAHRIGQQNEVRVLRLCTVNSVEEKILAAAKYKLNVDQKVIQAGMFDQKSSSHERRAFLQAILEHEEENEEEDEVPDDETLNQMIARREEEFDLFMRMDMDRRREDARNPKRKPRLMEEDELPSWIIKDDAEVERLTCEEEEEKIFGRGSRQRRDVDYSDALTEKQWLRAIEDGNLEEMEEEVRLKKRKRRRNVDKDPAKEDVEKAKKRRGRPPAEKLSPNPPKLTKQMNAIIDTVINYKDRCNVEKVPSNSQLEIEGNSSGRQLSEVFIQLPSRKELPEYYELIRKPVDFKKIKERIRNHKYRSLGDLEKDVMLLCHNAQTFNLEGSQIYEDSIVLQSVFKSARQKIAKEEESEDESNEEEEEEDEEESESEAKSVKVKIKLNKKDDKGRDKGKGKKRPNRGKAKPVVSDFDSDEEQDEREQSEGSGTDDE

Row | SMILES | SMARCA4 MSD MV411 degradation 24 h: average Dmax % [1] | DC50 [1] | SMARCA2 MSD A549 degradation 24 h: Average Dmax % [2] | DC50 [2] | SMARCA2 MSD MV411 degradation 24 h: average Dmax % [3] | DC50 [3] | Selectivity in MV411 [3] | Dmax [1] | Dmax [2] | Dmax [3]
1 | C#Cc1ccc([C@H](C)NC(=O)[C@@H]2C[C@@H](O)CN2C(=O)[C@@H](NC(=O)[C@H]2CC3(C2)C[C@H](N2CCC(N4CCC(N5CCN6c7cc(-c8ccccc8O)nnc7NC[C@H]6C5)CC4)CC2)C3)C(C)(C)C)cc1 (single isomer, unassigned) [I-226] | D (D (<50% degradation)) | > 100 nM | A (A (>90% degradation)) | > 100 nM | B (B (>70-90% degradation)) | 10 to 100 nM | B (B (>100-500 fold)) |  |  | 
2 | C#Cc1ccc(CNC(=O)[C@@H]2C[C@@H](O)CN2C(=O)[C@@H](NC(=O)[C@H]2CC3(C2)C[C@H](N2CCC(N4CCC(N5CCN6c7cc(-c8ccccc8O)nnc7NC[C@H]6C5)CC4)CC2)C3)C(C)(C)C)c(Cl)c1 (single isomer, unassigned) [I-229] |  | > 100 nM |  | > 100 nM |  | 10 to 100 nM | B (B (>100-500 fold)) | 50 to 70% | > 90% | 70 to 90%
3 | C#Cc1ccc(CNC(=O)[C@@H]2C[C@@H](O)CN2C(=O)[C@@H](NC(=O)[C@H]2CC3(C2)C[C@H](N2CCC(N4CCC(N5CCN6c7cc(-c8ccccc8O)nnc7NC[C@H]6C5)CC4)CC2)C3)C(C)(C)C)c(Cl)c1 (single isomer, unassigned) [I-230] | C (C (50-70% degradation)) | > 100 nM | A (A (>90% degradation)) | 10 to 50 nM | B (B (>70-90% degradation)) | 1 to 10 nM | B (B (>100-500 fold)) |  |  | 
4 | C#Cc1ccc(CNC(=O)[C@@H]2C[C@@H](O)CN2C(=O)[C@@H](NC(=O)[C@H]2CC3(C2)C[C@H](N2CCC(N4CCC(N5CCN6c7cc(-c8ccccc8O)nnc7NC[C@H]6C5)CC4)CC2)C3)C(C)(C)C)c(OC)c1 (single isomer, unassigned) [I-231] |  | > 100 nM |  | 50 to 100 nM |  | 1 to 10 nM | C (C (10-100 fold)) | 50 to 70% | > 90% | > 90%
5 | C#Cc1ccc(CNC(=O)[C@@H]2C[C@@H](O)CN2C(=O)[C@@H](NC(=O)[C@H]2CC3(C2)C[C@H](N2CCC(N4CCC(N5CCN6c7cc(-c8ccccc8O)nnc7NC[C@H]6C5)CC4)CC2)C3)C(C)(C)C)c(OC)c1 (single isomer, unassigned) [I-232] | B (B (>70-90% degradation)) | 10 to 100 nM | A (A (>90% degradation)) | 10 to 50 nM | A (A (>90% degradation)) | 1 to 10 nM | C (C (10-100 fold)) |  |  | 
6 | C#Cc1ccc([C@H](C)NC(=O)[C@@H]2C[C@@H](O)CN2C(=O)[C@@H](NC(=O)[C@H]2CCC3(CC2)C[C@H](N2CCN(c4cnc(N5CCN6c7cc(-c8ccccc8O)nnc7NC[C@H]6C5)nc4)CC2)C3)C(C)(C)C)cc1 (single isomer, unassigned) [I-233] |  | > 100 nM |  | 10 to 50 nM |  | 1 to 10 nM | C (C (10-100 fold)) | 50 to 70% | > 90% | 70 to 90%
7 | C#Cc1ccc([C@H](C)NC(=O)[C@@H]2C[C@@H](O)CN2C(=O)[C@@H](NC(=O)[C@H]2CCC3(CC2)C[C@H](N2CCN(c4cnc(N5CCN6c7cc(-c8ccccc8O)nnc7NC[C@H]6C5)nc4)CC2)C3)C(C)(C)C)cc1 (single isomer, unassigned) [I-234] | C (C (50-70% degradation)) | > 100 nM | A (A (>90% degradation)) | 50 to 100 nM | B (B (>70-90% degradation)) | 10 to 100 nM | C (C (10-100 fold)) |  |  | 
8 | C#Cc1ccc2c(c1)OCC[C@@H]2NC(=O)[C@@H]1C[C@@H](O)CN1C(=O)[C@@H](NC(=O)N1CC2(CC(N3CCC(c4cnc(N5CCc6[nH]c7nnc(-c8ccccc8O)cc7c6[C@H]5C)nc4)CC3)C2)C1)C(C)(C)C (single isomer, unassigned) [I-235] |  | > 100 nM |  | > 100 nM |  | > 100 nM | D (D (<10 fold)) | < 50% | 50 to 70% | < 50%

Results, then the compound that gave them:

Row | SMARCA4 MSD MV411 degradation 24 h: average Dmax % [1] | DC50 [1] | SMARCA2 MSD A549 degradation 24 h: Average Dmax % [2] | DC50 [2] | SMARCA2 MSD MV411 degradation 24 h: average Dmax % [3] | DC50 [3] | Selectivity in MV411 [3] | Dmax [1] | Dmax [2] | Dmax [3] | SMILES
9 |  | > 100 nM |  | > 100 nM |  | > 100 nM | D (D (<10 fold)) | < 50% | 70 to 90% | 50 to 70% | C#Cc1ccc2c(c1)OCC[C@H]2NC(=O)[C@@H]1C[C@@H](O)CN1C(=O)[C@@H](NC(=O)N1CC2(CC(N3CCC(c4cnc(N5CCc6[nH]c7nnc(-c8ccccc8O)cc7c6[C@H]5C)nc4)CC3)C2)C1)C(C)(C)C (single isomer, unassigned) [I-236]
10 | D (D (<50% degradation)) | > 100 nM | A (A (>90% degradation)) | 50 to 100 nM | B (B (>70-90% degradation)) | 1 to 10 nM | B (B (>100-500 fold)) |  |  |  | C#Cc1ccc(CNC(=O)[C@@H]2C[C@@H](O)CN2C(=O)[C@@H](NC(=O)[C@H]2CCC3(CC2)C[C@H](N2CCC(N4CC5(CC(N6CCN7c8cc(-c9ccccc9O)nnc8NC[C@H]7C6)C5)C4)CC2)C3)C(C)(C)C)cc1 (single isomer, unassigned) [I-237]
11 | D (D (<50% degradation)) | > 100 nM | A (A (>90% degradation)) | > 100 nM | B (B (>70-90% degradation)) | 10 to 100 nM | C (C (10-100 fold)) |  |  |  | C#Cc1ccc(CNC(=O)[C@@H]2C[C@@H](O)CN2C(=O)[C@@H](NC(=O)[C@H]2CCC3(CC2)C[C@H](N2CCC(N4CC5(CC(N6CCN7c8cc(-c9ccccc9O)nnc8NC[C@H]7C6)C5)C4)CC2)C3)C(C)(C)C)c(Cl)c1 (single isomer, unassigned) [I-238]
12 |  | 10 to 100 nM |  | > 100 nM |  | 1 to 10 nM | D (D (<10 fold)) | > 90% | > 90% | > 90% | C#Cc1ccc(CNC(=O)[C@@H]2C[C@@H](O)CN2C(=O)[C@@H](NC(=O)[C@H]2CC3(C2)C[C@H](N2CCN(C(=O)CN4CCN5c6cc(-c7ccccc7O)nnc6NC[C@H]5C4)CC2)C3)C(C)(C)C)cc1 (single isomer, unassigned) [I-239]
13 |  | 10 to 100 nM |  | 50 to 100 nM |  | 1 to 10 nM | C (C (10-100 fold)) | 70 to 90% | > 90% | > 90% | C#Cc1ccc(CNC(=O)[C@@H]2C[C@@H](O)CN2C(=O)[C@@H](NC(=O)[C@H]2CC3(C2)C[C@H](N2CCC(N4CCC(N5CCN6c7cc(-c8ccccc8O)nnc7NC[C@H]6C5)CC4)CC2)C3)C(C)(C)C)c(O)c1 (single isomer, unassigned) [I-241]
14 |  | > 100 nM |  | > 100 nM |  | 10 to 100 nM | C (C (10-100 fold)) | 50 to 70% | > 90% | > 90% | C#Cc1ccc(CNC(=O)[C@@H]2C[C@@H](O)CN2C(=O)[C@@H](NC(=O)CCCN2CCC(N3CC4(CC(N5CCN6c7cc(-c8ccccc8O)nnc7NC[C@H]6C5)C4)C3)CC2)C(C)(C)C)cc1 (single isomer, unassigned) [I-244]
15 |  | > 100 nM |  | > 100 nM |  | 10 to 100 nM | C (C (10-100 fold)) | 50 to 70% | > 90% | 70 to 90% | C#Cc1ccc(CNC(=O)[C@@H]2C[C@@H](O)CN2C(=O)[C@@H](NC(=O)[C@H]2CCC3(CC2)C[C@H](N2CCC(N(C)CCN4CCN5c6cc(-c7ccccc7O)nnc6NC[C@H]5C4)CC2)C3)C(C)(C)C)cc1 (single isomer, unassigned) [I-246]
16 | C (C (50-70% degradation)) | > 100 nM | A (A (>90% degradation)) | 50 to 100 nM | B (B (>70-90% degradation)) | 1 to 10 nM | C (C (10-100 fold)) |  |  |  | C#Cc1ccc(CNC(=O)[C@@H]2C[C@@H](O)CN2C(=O)[C@@H](NC(=O)[C@H]2CCC3(CC2)C[C@H](N2CCC(N(C)CCN4CCN5c6cc(-c7ccccc7O)nnc6NC[C@H]5C4)CC2)C3)C(C)(C)C)cc1 (single isomer, unassigned) [I-247]
17 |  | > 100 nM |  | > 100 nM |  | > 100 nM | D (D (<10 fold)) | < 50% | < 50% | < 50% | C#Cc1ccc(CNC(=O)[C@@H]2C[C@@H](O)CN2C(=O)[C@H](NC(=O)[C@H]2CCC3(CC2)C[C@H](N2CCC(c4cnc(N5CCN6c7cc(-c8ccccc8O)nnc7NC[C@H]6C5)nc4)CC2)C3)C(C)(C)CCO)cc1 (single isomer, unassigned) [I-248]
